Results reported in publication PMC5971566, “Population Pharmacokinetic Analyses for Rezafungin (CD101) Efficacy Using Phase 1 Data” (Antimicrobial Agents and Chemotherapy, 2018).
Numbered stars: 1 amine (or outer) side, 2 acyl side, 3 side chain; on linkers, the order of the positions; unused ones are H or OH. Bridge positions count the residues as written; N and C are the ends. Square brackets hold non-standard residues; d marks the D form. Peptide text beside a SMILES is read from it. * marks the point of attachment. Orn(4R-OH,5R-OCH2CH2NMe3+) = C[N+](C)(C)CCO[C@@H](N[*:3])[C@H](O)C[C@H](N[*:1])C(=O)[*:2]; pTerphenylCO(4''-OnC5H11) = CCCCCOc1ccc(-c2ccc(-c3ccc(C(=O)*)cc3)cc2)cc1; hTyr(3S-OH,4S-OH) = N[C@H](C(=O)O)[C@H](O)[C@@H](O)c1ccc(O)cc1; Pro(3S-OH,4S-Me) = C[C@H]1CN[C@H](C(=O)O)[C@H]1O; Hyp = O=C(O)[C@@H]1C[C@@H](O)CN1

Legend:
[1] = Population PK model of rezafungin plasma concentrations, pooled phase 1 single- and multiple-ascending-dose i.v. data; assay type: in vivo, humans (healthy subjects)
Source text: Data were pooled from two phase 1 studies (ClinicalTrials.gov registration no. NCT02516904 and NCT02551549) previously described by Sandison et al. ([8]). The protocols and informed consent were reviewed and approved by an appropriate institutional review board before subject enrollment. The studies were designed and monitored in compliance with the ethical principles of good clinical practice and in accordance with the Declaration of Helsinki.
The first study (ClinicalTrials.gov registration no. NCT2516904) evaluated single i.v. doses of rezafungin. A total of 32 subjects were enrolled and randomized evenly to one of four cohorts. Within each cohort, six subjects were administered rezafungin and two subjects were administered placebo as a single 60-min i.v. infusion. A single rezafungin dose of 50, 100, 200, and 400 mg was administered to cohorts 1, 2, 3, and 4, respectively. In all cohorts, blood samples for PK evaluations were collected predose and at 0.25, 0.5, 1, 1.5, 2, 4, 6, 8, 12, 24, 48, and 120 h after the start of infusion and on days 7, 14 (±1 day), and 21 (±1 day).
The second study (ClinicalTrials.gov registration no. NCT02551549) evaluated multiple i.v. doses of rezafungin. A total of 24 subjects were enrolled and randomized evenly to one of three cohorts. Within cohorts 1 and 2, six subjects were administered once-weekly i.v. doses of rezafungin at 100 and 200 mg, respectively, and two subjects were administered once-weekly i.v. doses of placebo, infused over 60 min on days 1 and 8. Within cohort 3, six subjects were administered once-weekly i.v. rezafungin doses of 400 mg and two subjects were administered once-weekly i.v. doses of placebo, infused over 60 min on days 1, 8, and 15. Blood samples were collected predose and at 0.5, 1, 1.5, 2, 4, 6, 8, 12, 24, 48, and 120 h after the start of each infusion and on days 7, 14 (±1 day), 21 (±1 day), and 35 (±1 day, cohort 3 only).
(§1) All blood samples were collected using tubes with K2-EDTA. Plasma was collected by centrifugation and stored at −70°C until analysis. Samples were analyzed using a 100-μl aliquot volume and a protein-precipitation extraction procedure followed by liquid chromatography/tandem mass spectrometry analysis. The rezafungin calibration range was 10.0 ng/ml to 10,000 ng/ml, using d9-CD101 as an internal standard. The range of the assay was extended 10-fold by dilution. An AB-Sciex API 4000 system was operated in the selected reaction-monitoring mode under optimized conditions for detection of rezafungin and d9-CD101 positive ions formed by electrospray ionization. Excellent interassay accuracy and precision, as measured by the use of quality control (QC) samples, were obtained during validation. Across the range of QC samples tested (lower limit of quantitation through the high-QC range), the interassay accuracy (percent bias from nominal) ranged from 0.3% to 4.3%, while the interassay precision (percent CV) ranged from 2.7% to 5%. Dilution QC samples performed well, with −1.5% bias and an interassay precision of 3.4%.
Candidate population PK models were fit to the pooled data using Monte Carlo parametric expectation maximization as implemented in the open-source software program S-ADAPT (version 1.5.6) ([22][–][24]). The model selection criteria used to discriminate between candidate PK models included (i) evaluation of individual and population mean parameter estimates and their precision (standard error of the mean [SEM]), (ii) graphical examination of standard goodness-of-fit plots and plots of the observed versus individual predicted concentrations, (iii) reductions in both residual variability and interindividual variability, and (iv) comparison of the objective function for nested models or the Akaike information criterion ([25]) for either nested or nonnested models.
Interindividual variability was estimated for each structural population PK model parameter, where possible, by using an exponential-error model. […]

[2] = cited from earlier work
Procedure: One of the unique features of rezafungin is its long half-life. […] This value far exceeds those reported for other echinocandins, which have terminal half-lives ranging from 9 to 52 h ([9][–][11]). […] Given rezafungin's long half-life, it is being evaluated ...

[3] = Stability of rezafungin in plasma samples (bioanalytical validation, LC-MS/MS); assay type: in vitro ADME; conditions: K2-EDTA plasma samples
Procedure: as §1

[4] = 400 mg the highest dose evaluated; cited from earlier work
Procedure: One of the unique features of rezafungin is its long half-life. […] This value far exceeds those reported for other echinocandins, which have terminal half-lives ranging from 9 to 52 h ([9][–][11]). […] Moreover, the model- ...

[5] = test system: C. glabrata isolates; conditions: including an echinocandin-resistant C. glabrata isolate; cited from earlier work
Source text: (§2) Historically, Candida albicans has been the predominant pathogen in candidemia and invasive candidiasis infections ([1]). Despite this, Candida glabrata is now emerging as a greater concern for clinicians due to a recent increase in prevalence among candidemia and invasive candidiasis infections and the pathogen's natural predisposition for expressing azole and echinocandin resistance mutations ([2], [3]). Accordingly, the incidence of infections due to C. glabrata not only has increased more than 4-fold over the past 20 years ([4]) but also has been accompanied by an increased prevalence of b ...

[6] = test system: Candida albicans; conditions: including azole- and echinocandin-resistant isolates; ref not given; cited from earlier work
Source text: as §2

[7] = test system: Candida glabrata; conditions: including azole- and echinocandin-resistant isolates; ref not given; cited from earlier work
Source text: as §2

[8] = test system: C. albicans isolates; conditions: cited from earlier work
Source text: as §2

[9] = healthy subjects n = 42, i.v., four-compartment population PK model
[10] = weight power function centered on 75 kg, power fixed to 0.75
[11] = weight power function centered on 75 kg, power fixed to 1.0

CCCCCOc1ccc(-c2ccc(-c3ccc(C(=O)N[C@H]4C[C@@H](O)[C@@H](OCC[N+](C)(C)C)NC(=O)[C@@H]5[C@@H](O)[C@@H](C)CN5C(=O)[C@H]([C@@H](C)O)NC(=O)[C@H]([C@H](O)[C@@H](O)c5ccc(O)cc5)NC(=O)[C@@H]5C[C@@H](O)CN5C(=O)[C@H]([C@@H](C)O)NC4=O)cc3)cc2)cc1 [Rezafungin] ({pTerphenylCO(4''-OnC5H11)}-[Orn(4R-OH,5R-OCH2CH2NMe3+)]T[Hyp][hTyr(3S-OH,4S-OH)]T[Pro(3S-OH,4S-Me)]; lactam 1-C)
rezafungin clearance, typical 50-kg subject ([1]; final population PK model, allometric scaling, 50 kg): 0.138 L/h
rezafungin clearance, typical 100-kg subject ([1]; final population PK model, allometric scaling, 100 kg): 0.232 L/h
Q2, distributional clearance, population mean final estimate [1, 9]: 24.4 L/h
Q3, distributional clearance, population mean final estimate [1, 9]: 0.912 L/h
Q4, distributional clearance, population mean final estimate [1, 9]: 0.0739 L/h
V2, volume of distribution of the peripheral compartment, population mean final estimate [1, 9]: 12.6 L
V3, volume of distribution of the peripheral compartment, population mean final estimate [1, 9]: 8.75 L
V4, volume of distribution of the peripheral compartment, population mean final estimate [1, 9]: 27.9 L
Vc, volume of distribution of the central compartment, population mean final estimate [1, 9]: 8.94 L
clearance ([1]; human, iv, healthy subjects n = 42, i.v. 60-min infusion 50-400 mg single or once weekly, plasma, linear four-compartment model, S-ADAPT, read-out: CL, total clearance, population mean final estimate (converted)): 3.13 mL/min
CL coefficient, population mean final estimate [1, 10]: 0.187 liter/h/75 kg
Q2 coefficient, population mean final estimate [1, 10]: 24.3 liters/h/75 kg
Q3 coefficient, population mean final estimate [1, 10]: 0.908 liter/h/75 kg
Q4 coefficient, population mean final estimate [1, 10]: 0.0736 liter/h/75 kg
V2 coefficient, population mean final estimate [1, 11]: 12.5 liters/75 kg
V3 coefficient, population mean final estimate [1, 11]: 8.70 liters/75 kg
V4 coefficient, population mean final estimate [1, 11]: 27.7 liters/75 kg
Vc coefficient, population mean final estimate [1, 11]: 8.88 liters/75 kg
serious or severe adverse events ([2]; either phase 1 study): No serious or severe adverse events were observed
patients with moderate treatment-related adverse events ([2]; of the 42 patients evaluated, phase 1 studies): 4
safety signals ([2]; phase 1 studies): no safety signals were noted
freeze-thaw stability [3]: stable through four freeze-thaw cycles
stability under frozen storage conditions ([3]; either at −20°C or at −70°C): at least 164 days
stability at room temperature ([3]; room temperature): at least 24 h
dose proportionality of maximum concentration, AUC and half-life [4]: dose proportional up to 400 mg
in vivo activity against a range of C. glabrata isolates [5]: in vivo activity
in vitro activity against C. albicans [6]: potent in vitro activity
in vitro activity against C. glabrata [7]: potent in vitro activity
in vivo activity against a range of C. albicans isolates [8]: in vivo activity
